The test has as its system human umbilical vein endothelial cells (HUVEC). The test can be described thus: Migration of endothelial cells, Boyden chamber method. Type of test: cell-based. Particulars: positive control, 10 ng/mL VEGF, cultured 2 hours. The procedure:
0.1% gelatin was applied on a polycarbonate membrane (Costar, USA) for 10 minutes and dried at room temperature for 1 hour. 30 μL of human umbilical vein endothelial cells (HUVEC, 1×10^6 cells/mL) was put in a lower chamber of a trans-wells (Costar, USA), covered with the dried polycarbonate membrane, and an upper chamber was overlaid, followed by fixing by a screw. The chamber was turned over so that the cells could be attached to the membrane and cultured at 37° C. in a CO2 incubator for 2 hours.
50 μL of Stewartia koreana extract according to the present invention was added to the upper chamber and cultured for 2 hours. The polycarbonate membrane was died using the diff-quick staining agent and the migrated endothelial cells were counted through the polycarbonate membrane using a microscope (Table 1). Each dry extract powder of Stewartia koreana otained in Example were dissolved in water in an amount of 100 μg/mL. The negative control was water and the positive control was 10 ng/mL of VEGF (vascular endothelialgrowth factor, Sigma).
The polycarbonate membrane was stained with diff-quick staining agent and the number of the endothelial cells which had migrated through the polycarbonate membrane was then counted using a microscope (FIG. 1). […] The dry powder of the ethanol extract of Stewartia koreana and compound Madecassol™ were added to water in an amount of 12.5 to 100 μg/mL.

The source of these data is patent US20100028463A1, “EXTRACT OF STEWARTIA KOREANA AND USE THEREOF” (priority 2006, published 2010).

In the case of VEGF, the Migrated endothelial cells is on record as 75 ± 0.41.
